Assays:
CDK2 = CDK2 (Homo sapiens (Human), UniProt P24941); assay: CDK2 NanoBiT assay (HiBiT-tagged CDK2 degradation); assay type: cell-based; conditions: C-terminal HiBiT tag on CDK2, LgBiT, 24 hours
Experimental: Example 145. NanoBiT Assay
A HEK293 clonal line with a CRISPR knock-in C-terminal HiBiT tag on CDK2 and stably expressing LgBiT protein was obtained from Promega (Madison, WI). Cells were plated at 5000 cells per well using Multiflo (BioTek) in 384-well white solid bottom plates (Corning, 3570BC) in 25 ul volume in DMEM media (DMEM, high glucose, HEPES, no phenol red (ThermoFisher Scientific, 21063029)) containing 10% FBS (Corning, 35-075-CV), 1% Peniciliin/Streptomycin ((ThermoFisher Scientific, 15140-122), and 1% Endurazine (Nano-Glo Endurazine Live Cell Substrate (Promega, N2571)). Cells were incubated for 16 hours at 37 C, 5% CO2. 75 nL of a compound at 30 μM were dosed into the plate using an Echo® 650 liquid handler (Labcyte). Cells were incubated at 37° C., 5% CO2 for 24 hours and then signal was read on a Pherastar FSX using “LUM plus” optic module.
Analysis was performed in Scinamic (Scinamic, Cambridge, MA). Luminescence response (R) was calculated by the formula: response=100*(S−N)/(P−N) where S is the signal of the well, N and P the mean negative and positive control values respectively of the same plate. The luminescence response was then fitted in Scinamic using a 3-parameter agonist logistic fit (hillslope=1, EC50>0, top/bottom unconstrained).

CRBN-DDB1 = CRBN-DDB1 (Homo sapiens (Human), UniProt Q96SW2); assay: CRBN HTRF assay (Cy5-Thalidomide probe displacement); assay type: binding; conditions: CRBN-DDB1 2.5 nM, Cy5-Thalidomide 100 nM, 30 min; Ki from geometric mean IC50 by Cheng-Prusoff
Experimental: Compound activity was monitored in a Homogenous Time-Resolved Fluorescence (HTRF) assay using 1-[5-({2-[2-(2-{[2-(2,6-dioxopiperidin-3-yl)-1,3-dioxo-2,3-dihydro-1H-isoindol-4-yl]oxy}acetamido)ethoxy]ethyl}carbamoyl)pentyl]-3,3-dimethyl-2-[(1E,3E)-5-[(2E)-1,3,3-trimethyl-5-sulfo-2,3-dihydro-1H-indol-2-ylidene]penta-1,3-dien-1-yl]-3H-indol-1-ium-5-sulfonate as a fluorescent probe. Biochemical assays were conducted in Greiner white 384 well HiBase plates (Cat. No 784075-25) in 10 μL total volume. A one pot detection solution of CRBN-DDB1 (2.5 nM), Anti-His Terbium Cryptate Gold (1×, PerkinElmer Cat. #: 61HI2TLB), and Cy5-Thalidomide (100 nM, Tenova Cat.: T52461) was prepared in 20 mM HEPES, 20 mM NaCl, 0.2 mM TCEP, 0.2 mM EDTA, and 0.005% Tween20 was dispensed to each assay plate. Compounds were stored in dry, ambient temperatures at 10 mM. A 10-point, 1:3 dilution series was prepared from 10 mM stock concentrations in Echo-compatible LDV plates. 10 nL of each compound dilution series was dispensed into assays wells using an Echo 650 (Labcyte inc. USA). 10 nL of 10 mM Lenalidomide was transferred into the active-control wells for the assay and 10 nL of DMSO was transferred into the neutral-control wells. The assay was then allowed to incubate for 30 min at ambient temperature after transferring compound. Plate measurements were taken on a Pherastar FSX (BMG Labtech, Germany) using the HTRF Red filter (Ex. 337 nm, em1: 620 nm, em2: 665 nm) (Flashes: 50, Integration time: 60-400 us, Z-height: 10 mm, Ratio-multiplier: 10,000). The HTRF signal was then subsequently normalized to the neutral and active controls. Analysis and IC50 values were derived using KNIME analytics (KNIME Zurich) transformation and fitting within Collaborative Drug Discovery (Collaborative Drug Discovery USA). Ki was derived from the geometric mean of the IC50 values using the Cheng-Prustoff transformation.

Chain of CRBN-DDB1 (Q96SW2 whole entry): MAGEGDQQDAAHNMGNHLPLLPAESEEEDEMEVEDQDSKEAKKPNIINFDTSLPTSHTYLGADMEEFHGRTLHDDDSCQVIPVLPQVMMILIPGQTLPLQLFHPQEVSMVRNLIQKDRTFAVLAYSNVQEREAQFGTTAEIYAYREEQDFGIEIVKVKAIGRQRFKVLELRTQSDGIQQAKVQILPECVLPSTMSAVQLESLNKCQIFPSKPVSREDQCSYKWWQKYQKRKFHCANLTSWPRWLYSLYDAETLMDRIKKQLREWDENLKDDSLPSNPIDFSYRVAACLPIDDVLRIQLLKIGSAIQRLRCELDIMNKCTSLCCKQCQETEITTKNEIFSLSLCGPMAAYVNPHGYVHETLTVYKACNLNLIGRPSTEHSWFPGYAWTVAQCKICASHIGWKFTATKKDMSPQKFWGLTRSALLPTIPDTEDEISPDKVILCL
Chain of CRBN-DDB1 (Q16531 whole entry partner): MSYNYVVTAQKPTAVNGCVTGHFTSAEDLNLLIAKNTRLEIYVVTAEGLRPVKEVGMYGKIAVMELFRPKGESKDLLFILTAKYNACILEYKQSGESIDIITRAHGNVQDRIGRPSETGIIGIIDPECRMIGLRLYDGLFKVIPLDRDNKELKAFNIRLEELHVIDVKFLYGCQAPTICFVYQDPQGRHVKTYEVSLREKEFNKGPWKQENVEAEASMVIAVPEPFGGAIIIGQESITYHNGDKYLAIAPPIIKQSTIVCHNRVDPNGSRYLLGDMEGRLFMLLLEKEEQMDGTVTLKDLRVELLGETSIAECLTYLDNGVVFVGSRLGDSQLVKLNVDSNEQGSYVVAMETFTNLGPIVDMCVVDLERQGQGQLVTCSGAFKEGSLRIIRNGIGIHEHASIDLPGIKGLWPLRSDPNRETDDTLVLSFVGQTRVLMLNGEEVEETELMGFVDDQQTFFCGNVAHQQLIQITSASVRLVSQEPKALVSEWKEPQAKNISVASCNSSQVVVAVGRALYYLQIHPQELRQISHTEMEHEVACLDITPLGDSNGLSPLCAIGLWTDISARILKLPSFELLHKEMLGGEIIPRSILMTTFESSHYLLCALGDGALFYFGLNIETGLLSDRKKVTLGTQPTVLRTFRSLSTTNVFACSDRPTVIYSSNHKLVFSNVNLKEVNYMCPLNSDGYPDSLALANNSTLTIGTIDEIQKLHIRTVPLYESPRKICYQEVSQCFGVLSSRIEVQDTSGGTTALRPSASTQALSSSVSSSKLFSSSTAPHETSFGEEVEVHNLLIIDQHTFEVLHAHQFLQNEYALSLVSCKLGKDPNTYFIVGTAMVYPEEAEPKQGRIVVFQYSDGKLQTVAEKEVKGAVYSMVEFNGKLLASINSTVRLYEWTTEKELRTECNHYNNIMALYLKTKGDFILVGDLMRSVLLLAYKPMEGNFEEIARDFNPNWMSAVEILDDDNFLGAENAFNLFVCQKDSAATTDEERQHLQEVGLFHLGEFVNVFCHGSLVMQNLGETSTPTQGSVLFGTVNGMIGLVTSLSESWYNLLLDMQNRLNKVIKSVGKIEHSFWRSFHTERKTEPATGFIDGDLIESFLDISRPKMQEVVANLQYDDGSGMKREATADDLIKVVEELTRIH

Row | Dmax (CDK2; HEK293, HEK293 clonal line) | Ki (CRBN-DDB1) | Compound | Dmax (CDK2; HEK293 clonal line)
1 | 10 to 50% | ≤ 0.1 µM | O=C1CCC(c2c(F)cc(N3CC(NC(=O)OC4CN(C(=O)C5CC5)C4)C3)cc2F)C(=O)N1 (centres unmarked) [Compound 41, 1-(cyclopropanecarbonyl)azetidin-3-yl (1-(4-(2,6-dioxopiperidin-3-yl)-3,5-difluorophenyl)azetidin-3-yl)carbamate] | 
2 | 10 to 50% | ≤ 0.1 µM | O=C1CCC(c2c(F)cc(N3CC(NC(=O)OC4CN(S(=O)(=O)C5CC5)C4)C3)cc2F)C(=O)N1 (centres unmarked) [Compound 42, 1-(cyclopropylsulfonyl)azetidin-3-yl (1-(4-(2,6-dioxopiperidin-3-yl)-3,5-difluorophenyl)azetidin-3-yl)carbamate] | 
3 | 50 to 80% | ≤ 0.1 µM | CN(CC1CC1)C(=O)N1CC(OC(=O)NC2CN(c3cc(F)c(C4CCC(=O)NC4=O)c(F)c3)C2)C1 (centres unmarked) [Compound 43, 1-((cyclopropylmethyl)(methyl)carbamoyl)azetidin-3-yl (1-(4-(2,6-dioxopiperidin-3-yl)-3,5-difluorophenyl)azetidin-3-yl)carbamate] | 
4 | > 80% | 0.1 to 1 µM | COc1c(N2CC(NC(=O)OCC3CC4(CCC4)C3)C2)ccc(C2CCC(=O)NC2=O)c1F (centres unmarked) [Compound 44, spiro[3.3]heptan-2-ylmethyl (1-(4-(2,6-dioxopiperidin-3-yl)-3-fluoro-2-methoxyphenyl)azetidin-3-yl)carbamate] | 
5 | 10 to 50% | ≤ 0.1 µM | CN(C)C(=O)N1CC(OC(=O)NC2CN(c3cc(F)c(C4CCC(=O)NC4=O)c(F)c3)C2)C1 (centres unmarked) [Compound 45, 1-(dimethylcarbamoyl)azetidin-3-yl (1-(4-(2,6-dioxopiperidin-3-yl)-3,5-difluorophenyl)azetidin-3-yl)carbamate] | 
6 | > 80% | ≤ 0.1 µM | O=C1CCC(c2c(F)cc(N3CC(NC(=O)OCC4CCCCC4)C3)cc2F)C(=O)N1 (centres unmarked) [Compound 51, cyclohexylmethyl (1-(4-(2,6-dioxopiperidin-3-yl)-3,5-difluorophenyl)azetidin-3-yl)carbamate] | 
7 | > 80% | ≤ 0.1 µM | C[C@H]1CC[C@H](COC(=O)NC2CN(c3cc(F)c(C4CCC(=O)NC4=O)c(F)c3)C2)CC1 (some centres unmarked) [Compound 52, ((1r, 4r)-4-methylcyclohexyl)methyl (1-(4-(2,6-dioxopiperidin-3-yl)-3,5-difluorophenyl)azetidin-3-yl)carbamate] | 
8 | > 80% | ≤ 0.1 µM | CC1(C)CCC(COC(=O)NC2CN(c3cc(F)c(C4CCC(=O)NC4=O)c(F)c3)C2)CC1 (centres unmarked) [Compound 53, (4,4-dimethylcyclohexyl)methyl (1-(4-(2,6-dioxopiperidin-3-yl)-3,5-difluorophenyl)azetidin-3-yl)carbamate] | 
9 | 50 to 80% | ≤ 0.1 µM | O=C1CC[C@H](c2c(F)cc(N3CC[C@@H](NC(=O)OCC4CC5(CCC5)C4)C3=O)cc2F)C(=O)N1 [Compound 54, spiro[3.3]heptan-2-ylmethyl ((R)-1-(4-((R)-2,6-dioxopiperidin-3-yl)-3,5-difluorophenyl)-2-oxopyrrolidin-3-yl)carbamate] | 
10 | 50 to 80% | 0.1 to 1 µM | O=C1CC[C@@H](c2c(F)cc(N3CC[C@@H](NC(=O)OCC4CC5(CCC5)C4)C3=O)cc2F)C(=O)N1 [Compound 55, spiro[3.3]heptan-2-ylmethyl ((R)-1-(4-((S)-2,6-dioxopiperidin-3-yl)-3,5-difluorophenyl)-2-oxopyrrolidin-3-yl)carbamate] | 
11 | > 80% | ≤ 0.1 µM | CC1(NC(=O)OCC2CC3(CCC3)C2)CN(c2cc(F)c(C3CCC(=O)NC3=O)c(F)c2)C1 (centres unmarked) [Compound 56, spiro[3.3]heptan-2-ylmethyl (1-(4-(2,6-dioxopiperidin-3-yl)-3,5-difluorophenyl)-3-methylazetidin-3-yl)carbamate] | 
12 | 50 to 80% | 0.1 to 1 µM | O=C1CCC(c2c(F)cc(N3C[C@@H](NC(=O)OCC4CC5(CCC5)C4)CC3=O)cc2F)C(=O)N1 (stereo partly drawn) [Compound 57, spiro[3.3]heptan-2-ylmethyl ((3S)-1-(4-(2,6-dioxopiperidin-3-yl)-3,5-difluorophenyl)-5-oxopyrrolidin-3-yl)carbamate] | 
13 | 50 to 80% | ≤ 0.1 µM | O=C1CCC(c2c(F)cc(N3C[C@H](NC(=O)OCC4CC5(CCC5)C4)CC3=O)cc2F)C(=O)N1 (stereo partly drawn) [Compound 58, spiro[3.3]heptan-2-ylmethyl ((3R)-1-(4-(2,6-dioxopiperidin-3-yl)-3,5-difluorophenyl)-5-oxopyrrolidin-3-yl)carbamate] | 
14 | > 80% | ≤ 0.1 µM | O=C1CCC(c2ccc(N3CC(NC(=O)OCC4CC5(CCC5)C4)C3)cc2F)C(=O)N1 (centres unmarked) [Compound 59, spiro[3.3]heptan-2-ylmethyl (1-(4-(2,6-dioxopiperidin-3-yl)-3-fluorophenyl)azetidin-3-yl)carbamate] | 
15 | > 80% | ≤ 0.1 µM | O=C1CCC(c2ccc(N3CC(NC(=O)OCC4CC5(CCC5)C4)C3)cc2Cl)C(=O)N1 (centres unmarked) [Compound 60, spiro[3.3]heptan-2-ylmethyl (1-(3-chloro-4-(2,6-dioxopiperidin-3-yl)phenyl)azetidin-3-yl)carbamate] | 
16 | > 80% | 0.1 to 1 µM | O=C1CCC(c2c(F)cc(N3CC[C@H](NC(=O)OCC4CC5(CCC5)C4)C3)cc2F)C(=O)N1 (stereo partly drawn) [Compound 61, spiro[3.3]heptan-2-ylmethyl ((3S)-1-(4-(2,6-dioxopiperidin-3-yl)-3,5-difluorophenyl)pyrrolidin-3-yl)carbamate] | 
17 | > 80% | 0.1 to 1 µM | O=C1CCC(c2ccc(N3CC(NC(=O)OCC4CC5(CCC5)C4)C3)cc2)C(=O)N1 (centres unmarked) [Compound 62, spiro[3.3]heptan-2-ylmethyl (1-(4-(2,6-dioxopiperidin-3-yl)phenyl)azetidin-3-yl)carbamate] | 

Row | Compound | Dmax (CDK2; HEK293, HEK293 clonal line) | Ki (CRBN-DDB1) | Dmax (CDK2; HEK293 clonal line)
18 | CC(C)(C)O[C@H]1C[C@@H](OC(=O)NC2CN(c3cc(F)c(C4CCC(=O)NC4=O)c(F)c3)C2)C1 (some centres unmarked) [Compound 46, (1s, 3s)-3-(tert-butoxy)cyclobutyl (1-(4-(2,6-dioxopiperidin-3-yl)-3,5-difluorophenyl)azetidin-3-yl)carbamate] | 50 to 80% | ≤ 0.1 µM | 
19 | CC(C)(C)[Si](C)(C)O[C@H]1C[C@H](OC(=O)NC2CN(c3cc(F)c(C4CCC(=O)NC4=O)c(F)c3)C2)C1 (some centres unmarked) [Compound 47, (1r, 3r)-3-((tert-butyldimethylsilyl)oxy)cyclobutyl (1-(4-(2,6-dioxopiperidin-3-yl)-3,5-difluorophenyl)azetidin-3-yl)carbamate] |  | ≤ 0.1 µM | > 80%
20 | CC(C)(C)[Si](C)(C)O[C@H]1C[C@@H](OC(=O)NC2CN(c3cc(F)c(C4CCC(=O)NC4=O)c(F)c3)C2)C1 (some centres unmarked) [Compound 48] |  | ≤ 0.1 µM | > 80%
21 | CC(C)(C)[Si](C)(C)O[C@H]1C[C@@H](COC(=O)NC2CN(c3cc(F)c(C4CCC(=O)NC4=O)c(F)c3)C2)C1 (some centres unmarked) [Compound 49, ((1s, 3s)-3-((tert-butyldimethylsilyl)oxy)cyclobutyl)methyl (1-(4-(2,6-dioxopiperidin-3-yl)-3,5-difluorophenyl)azetidin-3-yl)carbamate] | > 80% | 0.1 to 1 µM | 
22 | CC(C)(C)[Si](C)(C)O[C@H]1C[C@H](COC(=O)NC2CN(c3cc(F)c(C4CCC(=O)NC4=O)c(F)c3)C2)C1 (some centres unmarked) [Compound 50, ((1r, 3r)-3-((tert-butyldimethylsilyl)oxy)cyclobutyl)methyl (1-(4-(2,6-dioxopiperidin-3-yl)-3,5-difluorophenyl)azetidin-3-yl)carbamate] | > 80% | 0.1 to 1 µM | 

From patent US20250263395A1, “COMPOUNDS THAT MEDIATE PROTEIN DEGRADATION AND METHODS OF USE THEREOF” (Monte Rosa Therapeutics AG, priority 2022, published 2025)
